Among the data in ChEMBL document CHEMBL5465560, “Selectivity Literature for EUbOPEN Chemogenomic Library” (2024) are % of inhibition and % of control values, retold here.

In experiment [1] the target is T1, Cytoplasmic tyrosine-protein kinase BMX (Homo sapiens) (UniProt P51813).
T1 sequence (whole entry): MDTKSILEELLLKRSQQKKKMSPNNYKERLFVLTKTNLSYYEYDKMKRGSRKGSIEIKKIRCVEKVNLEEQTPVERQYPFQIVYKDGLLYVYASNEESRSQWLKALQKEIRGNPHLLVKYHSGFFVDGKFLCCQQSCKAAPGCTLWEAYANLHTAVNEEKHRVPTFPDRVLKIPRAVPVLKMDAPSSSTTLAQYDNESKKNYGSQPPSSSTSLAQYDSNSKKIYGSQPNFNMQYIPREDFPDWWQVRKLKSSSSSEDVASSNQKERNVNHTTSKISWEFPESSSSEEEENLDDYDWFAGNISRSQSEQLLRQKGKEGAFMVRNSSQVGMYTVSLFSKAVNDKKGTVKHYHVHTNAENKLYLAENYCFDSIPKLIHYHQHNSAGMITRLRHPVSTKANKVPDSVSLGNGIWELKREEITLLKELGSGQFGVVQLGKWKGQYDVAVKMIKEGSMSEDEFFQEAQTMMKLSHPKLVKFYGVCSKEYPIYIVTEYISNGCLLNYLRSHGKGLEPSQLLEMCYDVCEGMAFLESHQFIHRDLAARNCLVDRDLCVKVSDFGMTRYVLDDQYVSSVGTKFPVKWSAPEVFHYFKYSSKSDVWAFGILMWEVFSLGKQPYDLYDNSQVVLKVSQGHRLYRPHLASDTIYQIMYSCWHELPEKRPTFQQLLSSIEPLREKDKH
In words: Selectivity interaction (SelectScreen profiling (Invitrogen)) EUB0000607a BMX. The settings on record: at 2 µM.

The target of experiment [2] is SRSF protein kinase 2 (Homo sapiens) (UniProt P78362). The conditions noted are these: at 10 µM.
Chain of SRSF protein kinase 2 (Homo sapiens) (P78362 whole entry, looked up): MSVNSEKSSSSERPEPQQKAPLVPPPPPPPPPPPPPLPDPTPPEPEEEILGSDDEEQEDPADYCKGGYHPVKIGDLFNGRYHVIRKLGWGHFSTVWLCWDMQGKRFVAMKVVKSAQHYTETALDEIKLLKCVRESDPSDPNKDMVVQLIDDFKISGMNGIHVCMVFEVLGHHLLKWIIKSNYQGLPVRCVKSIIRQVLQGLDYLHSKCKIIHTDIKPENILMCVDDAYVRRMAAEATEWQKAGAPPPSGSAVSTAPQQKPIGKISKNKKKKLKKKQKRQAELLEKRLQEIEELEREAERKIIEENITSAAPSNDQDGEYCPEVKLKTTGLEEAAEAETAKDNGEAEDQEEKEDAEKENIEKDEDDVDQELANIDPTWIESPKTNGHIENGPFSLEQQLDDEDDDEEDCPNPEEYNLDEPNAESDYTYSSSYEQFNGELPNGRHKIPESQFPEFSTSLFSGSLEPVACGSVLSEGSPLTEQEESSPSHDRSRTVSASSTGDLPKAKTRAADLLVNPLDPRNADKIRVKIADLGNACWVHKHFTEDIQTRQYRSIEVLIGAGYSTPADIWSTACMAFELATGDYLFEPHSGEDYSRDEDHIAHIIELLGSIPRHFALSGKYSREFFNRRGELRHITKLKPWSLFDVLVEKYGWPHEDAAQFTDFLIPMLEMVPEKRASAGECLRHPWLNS
Experiment [3] deals with Platelet-derived growth factor receptor beta (Homo sapiens, UniProt P09619). Description: Selectivity interaction (KinomeScan (DiscoverX)) EUB0000666a PDGFRB. The settings on record: at 10 µM.
Chain of Platelet-derived growth factor receptor beta (P09619 whole entry): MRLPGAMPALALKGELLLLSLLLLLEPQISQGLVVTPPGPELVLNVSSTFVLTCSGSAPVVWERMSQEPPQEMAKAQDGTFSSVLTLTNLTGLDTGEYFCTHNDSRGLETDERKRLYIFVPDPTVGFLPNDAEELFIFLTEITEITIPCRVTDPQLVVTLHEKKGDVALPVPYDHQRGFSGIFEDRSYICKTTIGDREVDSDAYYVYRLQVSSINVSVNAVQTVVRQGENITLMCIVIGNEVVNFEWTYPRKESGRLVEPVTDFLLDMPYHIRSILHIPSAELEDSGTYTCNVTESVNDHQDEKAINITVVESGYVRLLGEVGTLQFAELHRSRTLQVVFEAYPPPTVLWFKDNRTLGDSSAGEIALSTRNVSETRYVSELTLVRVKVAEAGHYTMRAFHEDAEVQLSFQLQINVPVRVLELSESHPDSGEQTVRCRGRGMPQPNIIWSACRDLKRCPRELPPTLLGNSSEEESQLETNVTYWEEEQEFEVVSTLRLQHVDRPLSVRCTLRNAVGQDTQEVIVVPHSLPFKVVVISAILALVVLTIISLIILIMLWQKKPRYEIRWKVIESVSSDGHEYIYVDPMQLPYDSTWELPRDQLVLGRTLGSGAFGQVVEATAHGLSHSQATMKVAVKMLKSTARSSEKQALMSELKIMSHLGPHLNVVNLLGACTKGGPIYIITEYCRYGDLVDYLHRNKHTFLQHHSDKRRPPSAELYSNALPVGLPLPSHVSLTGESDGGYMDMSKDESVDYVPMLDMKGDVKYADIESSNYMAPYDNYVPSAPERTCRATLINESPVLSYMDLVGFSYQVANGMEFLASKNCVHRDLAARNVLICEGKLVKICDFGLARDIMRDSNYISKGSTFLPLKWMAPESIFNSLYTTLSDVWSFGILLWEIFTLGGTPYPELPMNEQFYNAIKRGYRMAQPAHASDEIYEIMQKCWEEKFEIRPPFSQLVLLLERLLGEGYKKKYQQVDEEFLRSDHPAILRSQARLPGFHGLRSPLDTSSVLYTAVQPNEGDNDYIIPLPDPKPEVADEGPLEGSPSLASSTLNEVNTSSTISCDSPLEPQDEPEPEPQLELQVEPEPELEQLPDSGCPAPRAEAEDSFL
For experiment [4], the target named is T2, Serine/threonine-protein kinase ULK1 (Homo sapiens) (UniProt O75385).
T2 sequence (whole entry): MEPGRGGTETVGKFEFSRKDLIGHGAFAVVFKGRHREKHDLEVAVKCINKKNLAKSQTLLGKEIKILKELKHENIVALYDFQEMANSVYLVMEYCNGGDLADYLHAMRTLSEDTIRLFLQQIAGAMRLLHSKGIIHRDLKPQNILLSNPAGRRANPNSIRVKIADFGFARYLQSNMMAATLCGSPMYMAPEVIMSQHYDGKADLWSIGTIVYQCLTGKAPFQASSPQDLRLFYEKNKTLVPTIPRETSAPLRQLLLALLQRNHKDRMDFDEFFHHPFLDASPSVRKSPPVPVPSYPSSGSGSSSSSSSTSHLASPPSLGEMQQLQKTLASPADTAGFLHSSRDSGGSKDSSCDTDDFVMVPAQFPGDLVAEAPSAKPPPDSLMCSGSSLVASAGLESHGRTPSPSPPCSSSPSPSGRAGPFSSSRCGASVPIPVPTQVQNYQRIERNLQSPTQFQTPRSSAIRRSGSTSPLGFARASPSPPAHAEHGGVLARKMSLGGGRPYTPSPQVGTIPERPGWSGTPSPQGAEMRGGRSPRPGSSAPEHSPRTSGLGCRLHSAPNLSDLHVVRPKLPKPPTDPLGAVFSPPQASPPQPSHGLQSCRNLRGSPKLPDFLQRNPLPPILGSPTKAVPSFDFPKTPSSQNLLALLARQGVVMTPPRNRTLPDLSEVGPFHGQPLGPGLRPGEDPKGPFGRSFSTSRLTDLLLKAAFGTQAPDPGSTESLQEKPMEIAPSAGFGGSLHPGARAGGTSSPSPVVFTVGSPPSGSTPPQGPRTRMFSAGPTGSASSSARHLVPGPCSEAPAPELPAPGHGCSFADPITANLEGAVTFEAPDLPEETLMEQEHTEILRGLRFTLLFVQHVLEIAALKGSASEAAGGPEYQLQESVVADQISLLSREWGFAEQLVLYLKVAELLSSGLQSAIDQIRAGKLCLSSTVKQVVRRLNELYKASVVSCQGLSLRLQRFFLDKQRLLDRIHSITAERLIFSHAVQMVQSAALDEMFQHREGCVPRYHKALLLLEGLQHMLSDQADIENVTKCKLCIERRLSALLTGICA
Description: Selectivity interaction (ActivX KiNativ screen (kinase selectivity in THP-1 cell lysates)) EUB0000639a ULK1. The class given is subcellular. The conditions noted are these: lysate, at 1 µM.

Experiment [5] has as its target T3, Dual specificity tyrosine-phosphorylation-regulated kinase 2 (Homo sapiens) (UniProt Q92630).
T3 sequence (whole entry): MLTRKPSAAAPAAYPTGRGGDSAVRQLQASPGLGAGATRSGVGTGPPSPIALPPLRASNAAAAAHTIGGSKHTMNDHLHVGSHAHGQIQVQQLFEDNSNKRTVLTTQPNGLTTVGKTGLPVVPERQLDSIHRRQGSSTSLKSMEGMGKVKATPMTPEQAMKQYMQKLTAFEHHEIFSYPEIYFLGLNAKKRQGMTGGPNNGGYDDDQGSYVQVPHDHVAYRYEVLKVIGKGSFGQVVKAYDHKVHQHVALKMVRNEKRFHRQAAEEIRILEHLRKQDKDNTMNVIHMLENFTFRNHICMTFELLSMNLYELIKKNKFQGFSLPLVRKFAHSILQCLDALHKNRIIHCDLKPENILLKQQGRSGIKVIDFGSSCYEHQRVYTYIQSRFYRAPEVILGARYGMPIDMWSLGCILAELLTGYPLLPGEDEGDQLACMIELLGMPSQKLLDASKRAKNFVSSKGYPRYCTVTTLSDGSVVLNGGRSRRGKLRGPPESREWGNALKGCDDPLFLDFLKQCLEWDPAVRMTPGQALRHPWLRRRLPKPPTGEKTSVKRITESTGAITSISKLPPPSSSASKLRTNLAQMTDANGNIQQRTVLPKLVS
In words: Selectivity interaction (KinomeScan (DiscoverX)) EUB0001049a DYRK2. The conditions noted are these: at 1 µM.

The target of experiment [6] is Eukaryotic translation initiation factor 2-alpha kinase 1 (Homo sapiens) (UniProt Q9BQI3). Description: Selectivity interaction (KinomeScan (DiscoverX)) EUB0001049a EIF2AK1. The settings on record: at 1 µM.
Chain of Eukaryotic translation initiation factor 2-alpha kinase 1 (Homo sapiens) (Q9BQI3 whole entry): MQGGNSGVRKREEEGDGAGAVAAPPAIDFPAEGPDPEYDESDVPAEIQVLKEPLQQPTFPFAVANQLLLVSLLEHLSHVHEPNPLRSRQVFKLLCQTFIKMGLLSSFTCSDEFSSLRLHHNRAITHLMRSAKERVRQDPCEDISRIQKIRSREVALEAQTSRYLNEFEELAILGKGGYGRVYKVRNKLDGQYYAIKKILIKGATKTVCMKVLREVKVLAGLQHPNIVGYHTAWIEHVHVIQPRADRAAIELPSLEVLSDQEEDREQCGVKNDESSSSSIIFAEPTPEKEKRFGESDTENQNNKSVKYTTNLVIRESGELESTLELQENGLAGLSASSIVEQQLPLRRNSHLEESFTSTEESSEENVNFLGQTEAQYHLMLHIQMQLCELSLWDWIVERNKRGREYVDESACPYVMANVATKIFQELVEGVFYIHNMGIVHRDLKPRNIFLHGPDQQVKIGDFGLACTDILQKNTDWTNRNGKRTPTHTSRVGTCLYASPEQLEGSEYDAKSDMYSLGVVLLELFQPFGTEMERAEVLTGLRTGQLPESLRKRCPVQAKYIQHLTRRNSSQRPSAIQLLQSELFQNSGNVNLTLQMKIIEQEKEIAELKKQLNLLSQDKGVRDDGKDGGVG
Experiment [7] concerns the target Calcium/calmodulin-dependent protein kinase type 1D (Homo sapiens) (UniProt Q8IU85). Description: Selectivity interaction (KinomeScan (DiscoverX)) EUB0000045b CAMK1D.
The target of experiment [8] is Serine/threonine-protein kinase PAK 2 (Homo sapiens) (UniProt Q13177). In words: Selectivity interaction (KinomeScan (DiscoverX)) EUB0000595a PAK2. The conditions noted are these: at 10 µM.
Chain of Serine/threonine-protein kinase PAK 2 (Homo sapiens) (Q13177 whole entry): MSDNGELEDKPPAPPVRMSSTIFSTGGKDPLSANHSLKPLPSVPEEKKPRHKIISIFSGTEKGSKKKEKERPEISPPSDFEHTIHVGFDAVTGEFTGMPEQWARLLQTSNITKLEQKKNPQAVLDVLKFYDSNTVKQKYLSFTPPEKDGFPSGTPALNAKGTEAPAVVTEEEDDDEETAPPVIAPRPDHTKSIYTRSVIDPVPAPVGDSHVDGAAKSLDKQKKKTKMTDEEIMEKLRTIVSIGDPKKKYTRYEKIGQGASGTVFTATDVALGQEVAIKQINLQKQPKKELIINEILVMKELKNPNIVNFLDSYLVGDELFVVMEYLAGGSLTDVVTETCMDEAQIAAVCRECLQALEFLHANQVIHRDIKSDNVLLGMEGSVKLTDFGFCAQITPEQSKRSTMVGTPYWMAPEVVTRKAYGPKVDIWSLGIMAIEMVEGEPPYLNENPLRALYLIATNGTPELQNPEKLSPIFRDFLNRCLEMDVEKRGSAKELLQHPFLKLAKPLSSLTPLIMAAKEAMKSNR

Chain of Calcium/calmodulin-dependent protein kinase type 1D (Homo sapiens) (Q8IU85 whole entry, looked up): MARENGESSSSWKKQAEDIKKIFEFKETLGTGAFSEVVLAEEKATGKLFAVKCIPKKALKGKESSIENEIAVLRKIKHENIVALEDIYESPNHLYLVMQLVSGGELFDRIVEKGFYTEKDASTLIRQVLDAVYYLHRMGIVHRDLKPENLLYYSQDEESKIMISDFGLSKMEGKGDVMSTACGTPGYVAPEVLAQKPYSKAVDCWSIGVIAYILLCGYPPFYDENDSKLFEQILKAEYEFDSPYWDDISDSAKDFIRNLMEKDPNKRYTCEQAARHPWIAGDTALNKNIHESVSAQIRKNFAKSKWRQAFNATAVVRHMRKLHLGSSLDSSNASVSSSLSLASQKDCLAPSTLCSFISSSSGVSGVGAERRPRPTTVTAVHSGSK

For the molecule `CNC(=O)Nc1ccc(-c2nc(N3CC4CCC(C3)O4)c3cnn(C4CCC5(CC4)OCCO5)c3n2)cc1`, the % of inhibition in experiment [1] was found to be 10%.

For `Cc1cc([C@@H](C)Nc2ccccc2C(=O)O)c2nc(N3CCOCC3)cc(=O)n2c1` [AZD-6482], the % of control in experiment [2] was found to be 85%.

Consider `O=C(NOC[C@H](O)CO)c1ccc(F)c(F)c1Nc1ccc(I)cc1F`, for which the % of control in experiment [3] was determined as 66%.

For the molecule `CC[C@@H]1[C@H](F)C(=O)N[C@@H]1COc1nccc2cc(C(N)=O)c(OC)cc12` [ZIMLOVISERTIB], the % of inhibition in experiment [4] is -53.5%.

Consider `COc1cc(Nc2nc(C)cc(-c3cnn4nc(OC)ccc34)n2)cc(C(F)(F)F)c1`, for which the results for the % of control in experiment [5] and in experiment [6] were 79% and 89%, respectively.

Consider `C=CC(=O)Nc1cc(-n2c(=O)ccc3cnc4ccc(-c5ccc(NS(C)(=O)=O)cc5)cc4c32)ccc1C`, for which the % of control in experiment [7] (at 1 µM) is 100%; in experiment [7] (at 10 µM), 77%.

Turning to `COCC(=O)NC/C=C/c1ccc2ncnc(Nc3ccc(Oc4ccc(C)nc4)c(C)c3)c2c1` [CP-724714], in experiment [8], the % of control was determined as 87%.
